Measured values: patent US20140235774A1, “FLUORESCENT COMPOUND, METHOD FOR PRODUCING THE SAME, AND FLUORESCENT RESIN COMPOSITION” (Shin-Etsu Chemical Co., Ltd., priority 2013, published 2014)
Values after ≈ are worked out from the molar mass of the structure shown. One block for each compound: values may come before it.

Columns and labels:
Format in all cases: physicochemical
[1] = Ultraviolet-visible absorption spectrum in solvent
Method: (§1) The ultraviolet-visible absorption spectrum and the fluorescent spectrum of Compound 1 were measured in ethanol. The longest absorption maximum wavelength was 359 nm, the molar absorbance coefficient was 6.50×10^4, and the maximum fluorescent wavelength was 410 nm (excitation wavelength: 359 nm).
(§2) The ultraviolet-visible absorption spectrum and the fluorescent spectrum of Compound 2 were measured in ethanol. The longest absorption maximum wavelength was 359 nm, the molar absorbance coefficient was 7.88×10^4, and the maximum fluorescent wavelength was 410 nm (excitation wavelength: 359 nm).
as §1, with “3” for “1”, “tetrahydrofuran.” for “ethanol.”, “363” for “359”, “2.65×10^4,” for “6.50×10^4,”, “413” for “410”
as §1, with “4” for “1”, “tetrahydrofuran.” for “ethanol.”, “363” for “359”, “2.83×10^4,” for “6.50×10^4,”, “413” for “410”, “363 nm)” for “359 nm).”

[2] = Fluorescent spectrum in solvent
Method: as §1, §2
as §1, with “3” for “1”, “tetrahydrofuran.” for “ethanol.”, “363” for “359”, “2.65×10^4,” for “6.50×10^4,”, “413” for “410”
as §1, with “4” for “1”, “tetrahydrofuran.” for “ethanol.”, “363” for “359”, “2.83×10^4,” for “6.50×10^4,”, “413” for “410”, “363 nm)” for “359 nm).”

[3] = Solubility in transparent silicone resin SIM-360 base compound (portion-wise addition until transparent); details: for solubility in the SIM-360 base compound: room temperature, with stirring
Method: Into a glass vial, 10.1 mg of Compound 1 produced in Example 1 was weighed and added with a transparent silicone resin, the SIM-360 base compound (produced by Shin-Etsu Chemical Co., Ltd.) portion-wise at room temperature with stirring. Dissolution was determined when the solution turned transparent. The solubility was calculated to be 1 mmol/L. To this mixture, 10% by mass of a curing agent was added on the basis of the base compound and mixed. After defoaming, the mixture was heated at 150° C. for 30 minutes to be cured, giving a fluorescent silicone resin composition. It was possible to change the concentration of Compound 1 freely as long as the concentration was less than or equal to the above-described concentration.

[4] = in ethanol, excitation wavelength 359 nm
[5] = in tetrahydrofuran, excitation wavelength 363 nm

Structure (SMILES): Cc1ccc(N(c2ccc(C)cc2)c2ccc(-c3ccc(N(c4ccc(-c5ccc(N(c6ccc(C)cc6)c6ccc(C)cc6)cc5)cc4)c4cccc([Si](C)(O[Si](C)(C)C)O[Si](C)(C)C)c4)cc3)cc2)cc1 [Compound 1, N,N-bis[4′-(N′,N′-di-4-tolylamino)biphenyl-4-yl]-3-(1-trimethylsiloxy-1,3,3,3-tetramethyldisiloxan-1-yl)aniline]
longest absorption maximum wavelength ([1]; in ethanol): 359 nm | molar absorbance coefficient ([1]; in ethanol): 6.50×10^4 | maximum fluorescent wavelength [2, 4]: 410 nm | solubility in the SIM-360 base compound [3]: 1000 µM (≈ 1010 µg/mL)

Structure (SMILES): C[Si](C)(C)O[Si](C)(O[Si](C)(C)C)c1cccc(N(c2ccccc2)c2ccc(-c3ccc(N(c4ccccc4)c4ccc(-c5ccc(N(c6ccccc6)c6ccc(-c7ccc(N(c8ccccc8)c8cccc([Si](C)(O[Si](C)(C)C)O[Si](C)(C)C)c8)cc7)cc6)cc5)cc4)cc3)cc2)c1 [Compound 2, N,N′-bis[phenyl-3-(1-trimethylsoxy-1,3,3,3-tetramethyldisiloxan-1-yl)phenylaminobiphenyl-4′-yl]-N,N-diphenylbenzidine]
longest absorption maximum wavelength ([1]; in ethanol): 359 nm | molar absorbance coefficient ([1]; in ethanol): 7.88×10^4 | maximum fluorescent wavelength [2, 4]: 410 nm | solubility in the SIM-360 base compound [3]: 500 µM (≈ 708 µg/mL)

Structure (SMILES): C[Si](C)(C)O[Si](C)(O[Si](C)(C)C)c1cccc(N(c2ccc(-c3ccc(N(c4ccccc4)c4ccc(-c5ccc(N(c6ccccc6)c6ccccc6)cc5)cc4)cc3)cc2)c2ccc(-c3ccc(N(c4ccccc4)c4ccc(-c5ccc(N(c6ccccc6)c6ccccc6)cc5)cc4)cc3)cc2)c1 [Compound 3, N,N-bis[4′-(N′-phenyl-N′-4′-diphenylaminobiphenyl-4-yl)biphenyl-4-yl]-3-(1-trimethylsiloxy-1,3,3,3-tetramethyldisiloxan-1-yl)aniline]
longest absorption maximum wavelength ([1]; in tetrahydrofuran): 363 nm | molar absorbance coefficient ([1]; in tetrahydrofuran): 2.65×10^4 | maximum fluorescent wavelength [2, 5]: 413 nm | solubility in the SIM-360 base compound [3]: 100 µM (≈ 144 µg/mL)

solubility in the SIM-360 base compound (result in words) ([3]; measured as in Example 6): not dissolved at all
Structure (SMILES): Cc1cccc(N(c2ccc(-c3ccc(N(c4ccccc4)c4ccc(-c5ccc(N(c6ccccc6)c6ccc(-c7ccc(N(c8cccc(C)c8)c8cccc(C)c8)cc7)cc6)cc5)cc4)cc3)cc2)c2cccc(C)c2)c1 [Compound 6, reference compound]

Structure (SMILES): C[Si](C)(C)O[Si](C)(C)c1cccc(N(c2ccc(-c3ccc(N(c4ccccc4)c4ccc(-c5ccc(N(c6ccccc6)c6ccccc6)cc5)cc4)cc3)cc2)c2ccc(-c3ccc(N(c4ccccc4)c4ccc(-c5ccc(N(c6ccccc6)c6ccccc6)cc5)cc4)cc3)cc2)c1 [Compound 4, N,N-bis[4′-(N′-phenyl-N′-4′-diphenylaminobiphenyl-4-yl)biphenyl-4-yl]-3-(pentamethyldisiloxan-1-yl)aniline]
longest absorption maximum wavelength ([1]; in tetrahydrofuran): 363 nm | molar absorbance coefficient ([1]; in tetrahydrofuran): 2.83×10^4 | maximum fluorescent wavelength [2, 5]: 413 nm | solubility in the SIM-360 base compound [3]: 100 µM (≈ 136 µg/mL)
